Measured values from patent US20090131417A1, “SUBSTITUTED PYRIDYL AMIDE COMPOUNDS AS MODULATORS OF THE HISTAMINE H3 RECEPTOR” (priority 2007, published 2009).

Legend:
[1] = biological target: T1, cloned human H3 receptors, stably expressed in SK-N-MC cells (Homo sapiens, UniProt Q9Y5N1); assay: H3 Receptor Binding (Human); settings: average of results obtained
T1 construct: expressed in transfected cells; host or cells: SK-N-MC cells
Method: Binding of compounds to the cloned human H3 receptors, stably expressed in SK-N-MC cells, was performed as described by Barbier, A. J. et al. (Br. J. Pharmacol. 2004, 143(5), 649-661). Data for compounds tested in this assay are presented in Table 1, as an average of results obtained.

[2] = biological target: T2, human H3 receptor (Homo sapiens, UniProt Q9Y5N1); assay: Cyclic AMP Accumulation (human H3); assay type: cell-based; settings: SK-N-MC cells expressing reporter construct and human H3 receptor, Example 1 tested as TFA salt; for Kb: read-out: Human pA2 (converted)
T2 construct: expressed in transfected cells; host or cells: SK-N-MC cells
Method: (§1) Sublines of SK-N-MC cells were created that expressed a reporter construct and either the human or rat H3 receptor. The pA2 values were obtained as described by Barbier et al. (2004). Example 1 was tested as the corresponding TFA salt.

[3] = biological target: T3, rat H3 receptor (Rattus norvegicus, UniProt Q9QYN8); assay: Cyclic AMP Accumulation (rat H3); assay type: cell-based; settings: SK-N-MC cells expressing reporter construct and rat H3 receptor; Example 1 tested as TFA salt; read-out: Rat pA2 (converted)
T3 construct: expressed in transfected cells; host or cells: SK-N-MC cells (subline with reporter construct)
Method: as §1

[4] = biological target: T4, rat H3 receptor (rat brain membranes) (Rattus norvegicus, UniProt Q9QYN8); assay: H3 Receptor Binding (Rat); settings: rat brain without cerebellum membranes; 0.8 nM N-[3H]-alpha-methylhistamine; IC50 converted to Ki (Kd 0.8 nM); tested as the corresponding TFA salt
T4 construct: A rat brain without cerebellum (Zivic Laboratories Inc., Pittsburgh, Pa.) was homogenized; tissue Zivic Laboratories Inc; host or cells: rat brain without cerebellum, membranes
Method: A rat brain without cerebellum (Zivic Laboratories Inc., Pittsburgh, Pa.) was homogenized in 50 mM Tris-HCl/5 mM EDTA and centrifuged at 1,000 rpm for 5 min. The supernatant was removed and recentrifuged at 15,000 rpm for 30 min. Pellets were rehomogenized in 50 mM Tris/5 mM EDTA (pH 7.4). Membranes were incubated with 0.8 nM N—[^3H]-α-methylhistamine plus/minus test compounds for 60 min at 25° C. and harvested by rapid filtration over GF/C glass fiber filters (pretreated with 0.3% polyethylenimine) followed by four washes with buffer. Nonspecific binding was defined in the presence of 100 μM histamine. Inhibitory concentration (responsible for 50% inhibition of maximal effect, IC50) values were determined by a single site curve-fitting program (GraphPad, San Diego, Calif.) and converted to Ki values based on a N—[^3H]-α-methylhistamine dissociation constant (Kd) of 0.8 nM. The following results were obtained: Example 2, 28 nM; Example 6, 50 nM (tested as the corresponding TFA salt).

T2 sequence (Q9Y5N1 whole entry): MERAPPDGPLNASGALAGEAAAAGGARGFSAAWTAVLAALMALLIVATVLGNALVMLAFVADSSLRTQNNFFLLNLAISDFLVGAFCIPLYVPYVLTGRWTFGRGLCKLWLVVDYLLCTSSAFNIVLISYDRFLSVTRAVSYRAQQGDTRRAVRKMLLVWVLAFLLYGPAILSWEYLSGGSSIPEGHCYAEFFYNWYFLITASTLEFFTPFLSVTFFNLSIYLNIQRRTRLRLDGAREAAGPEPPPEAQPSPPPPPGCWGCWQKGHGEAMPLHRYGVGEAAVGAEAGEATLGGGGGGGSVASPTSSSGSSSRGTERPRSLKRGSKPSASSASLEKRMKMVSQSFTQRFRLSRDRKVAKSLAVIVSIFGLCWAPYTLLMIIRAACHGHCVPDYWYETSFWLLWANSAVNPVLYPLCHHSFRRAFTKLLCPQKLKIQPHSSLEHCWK
T1 sequence (Q9Y5N1 whole entry): as above
T3 sequence (Q9QYN8 whole entry): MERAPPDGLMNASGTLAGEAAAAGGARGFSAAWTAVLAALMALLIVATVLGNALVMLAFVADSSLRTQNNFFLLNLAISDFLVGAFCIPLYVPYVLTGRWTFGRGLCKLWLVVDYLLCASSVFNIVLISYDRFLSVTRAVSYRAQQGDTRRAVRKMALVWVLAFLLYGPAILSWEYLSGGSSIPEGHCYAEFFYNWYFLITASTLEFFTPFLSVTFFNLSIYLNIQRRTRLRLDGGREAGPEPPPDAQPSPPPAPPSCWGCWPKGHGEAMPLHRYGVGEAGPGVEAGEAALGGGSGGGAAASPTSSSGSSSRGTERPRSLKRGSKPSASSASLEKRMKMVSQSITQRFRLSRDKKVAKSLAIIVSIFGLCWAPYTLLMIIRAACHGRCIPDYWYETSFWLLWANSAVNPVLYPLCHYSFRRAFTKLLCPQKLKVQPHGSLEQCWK
T4 sequence (Q9QYN8 whole entry): as above

Ki [1] [nM]	Compound	further results
2.9	O=C(c1cncc(Sc2ccc(F)cc2)c1)N1CCCN(C2CCC2)CC1 [Example 8, (4-Cyclobutyl-[1,4]diazepan-1-yl)-[5-(4-fluoro-phenylsulfanyl)-pyridin-3-yl]-methanone]	Kb [2]: 3.98 nM; Kb [3]: 43.7 nM
11	CC(C)Oc1cncc(C(=O)N2CCCN(C3CCC3)CC2)c1 [Example 7, (4-Cyclobutyl-[1,4]diazepan-1-yl)-(5-isopropoxy-pyridin-3-yl)-methanone]	
1.9	N#Cc1cccc(Oc2cncc(C(=O)N3CCCN(C4CCC4)CC3)c2)c1 [Example 3, 3-[5-(4-Cyclobutyl-[1,4]diazepane-1-carbonyl)-pyridin-3-yloxy]-benzonitrile]	Kb [2]: 0.955 nM; Kb [3]: 6.17 nM
3.6	O=C(c1cncc(Oc2ccc(F)cc2)c1)N1CCCN(C2CCC2)CC1 [Example 1, (4-Cyclobutyl-[1,4]diazepan-1-yl)-[5-(4-fluoro-phenoxy)-pyridin-3-yl]-methanone]	Human pA2 [2]: 8.87; Kb [3]: 28.8 nM
12	O=C(c1cc(Sc2ccc(F)cc2)ccn1)N1CCCN(C2CCC2)CC1 [Example 15, (4-Cyclobutyl-[1,4]diazepan-1-yl)-[4-(4-fluoro-phenylsulfanyl)-pyridin-2-yl]-methanone]	
3.4	COc1cccc(Oc2cncc(C(=O)N3CCCN(C4CCC4)CC3)c2)c1 [Example 5, (4-Cyclobutyl-[1,4]diazepan-1-yl)-[5-(3-methoxy-phenoxy)-pyridin-3-yl]-methanone]	
1.8	O=C(c1cncc(Sc2ccncc2)c1)N1CCCN(C2CCC2)CC1 [Example 12, (4-Cyclobutyl-[1,4]diazepan-1-yl)-[5-(pyridin-4-ylsulfanyl)-pyridin-3-yl]-methanone]	
3.2	O=C(c1cncc(Oc2cccc(Cl)c2)c1)N1CCCN(C2CCC2)CC1 [Example 2, [5-(3-Chloro-phenoxy)-pyridin-3-yl]-(4-cyclobutyl-[1,4]diazepan-1-yl)-methanone]	Ki [4]: 28 nM
1	O=C(c1cncc(Oc2cccc(F)c2)c1)N1CCCN(C2CCC2)CC1 [Example 6, (4-Cyclobutyl-[1,4]diazepan-1-yl)-[5-(3-fluoro-phenoxy)-pyridin-3-yl]-methanone]	Ki [4]: 50 nM; Kb [2]: 2.4 nM; Kb [3]: 20.4 nM
11	O=C(c1cc(Oc2ccccc2)ccn1)N1CCCN(C2CCC2)CC1 [Example 13, (4-Cyclobutyl-[1,4]diazepan-1-yl)-(4-phenoxy-pyridin-2-yl)-methanone]	
18	O=C(c1cncc(Sc2ncccn2)c1)N1CCCN(C2CCC2)CC1 [Example 11, (4-Cyclobutyl-[1,4]diazepan-1-yl)-[5-(pyrimidin-2-ylsulfanyl)-pyridin-3-yl]-methanone]	
3	CC(C)Sc1cncc(C(=O)N2CCCN(C3CCC3)CC2)c1 [Example 9, (4-Cyclobutyl-[1,4]diazepan-1-yl)-(5-isopropylsulfanyl-pyridin-3-yl)-methanone]	
3.4	O=C(c1cncc(Oc2ccccc2)c1)N1CCCN(C2CCC2)CC1 [Example 4, (4-Cyclobutyl-[1,4]diazepan-1-yl)-(5-phenoxy-pyridin-3-yl)-methanone]	
6.6	O=C(c1cncc(Sc2ccccn2)c1)N1CCCN(C2CCC2)CC1 [Example 10, (4-Cyclobutyl-[1,4]diazepan-1-yl)-[5-(pyridin-2-ylsulfanyl)-pyridin-3-yl]-methanone]	
17	O=C(c1cc(Oc2ccc(F)cc2)ccn1)N1CCCN(C2CCC2)CC1 [Example 14, (4-Cyclobutyl-[1,4]diazepan-1-yl)-[4-(4-fluoro-phenoxy)-pyridin-2-yl]-methanone]	
